Drawing on the NIST ThermoML archive (doi:10.1016/j.jct.2018.08.038), this text covers mass density for two compounds.

The term mass density denotes mass per unit of volume.

± gives the expanded uncertainty stated by the source.

The conditions of the data set: 101.33 kPa, Liquid, Vibrating tube method.

With `CCCC[n+]1ccccc1.O=S(=O)([N-]S(=O)(=O)C(F)(F)F)C(F)(F)F` [1-butylpyridinium bis[(trifluoromethyl)sulfonyl]imide], the mass density was found to be 1449.8 ± 2.1 kg/m3 (303.15 K), 1440.3 ± 2.1 kg/m3 (313.15 K), 1431.1 ± 2.1 kg/m3 (323.15 K) and 1421.9 ± 2.1 kg/m3 (333.15 K).

Regarding `CCCC[n+]1ccccc1.N#C[N-]C#N` [1-butylpyridinium dicyanamide], the mass density is, setting by setting: (303.15 K) 1074.8 ± 2 kg/m3; (313.15 K) 1069.7 ± 2 kg/m3; (323.15 K) 1064.4 ± 2 kg/m3; (333.15 K) 1059.5 ± 2 kg/m3.
